The values that follow come from PubChem BioAssay AID328 (DTP/NCI, 2004).

The assay concerns BDF1 mice, P388 leukemia ip, median survival T/C. The assay can be described thus: NCI In Vivo Anticancer Drug Screen. Data for tumor model P388 Leukemia (intraperitoneal) in B6D2F1 (BDF1) mice. The following applies: endpoint: median survival time, higher = longer survival. The gist of the method:
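Each value expresses how treatment altered survival: treated-mouse outcome over vehicle-mouse outcome, both groups bearing the transplanted tumour.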

Setting [1] is: dose: 50.0 mg/kg/injection, schedule: Q01DX009 (ip), vehicle: saline with Tween-80.
The mark [2] stands for this setting: dose: 100.0 mg/kg/injection, schedule: Q01DX009 (ip), vehicle: saline with Tween-80.
Setting [3] is: dose: 200.0 mg/kg/injection, schedule: Q01DX009 (ip), vehicle: saline with Tween-80.
[4] abbreviates: dose: 50.0 mg/kg/injection, schedule: Q01DX009 (ip), vehicle: saline.
Where [5] appears, read: dose: 100.0 mg/kg/injection, schedule: Q01DX009 (ip), vehicle: saline.
Where [6] appears, read: dose: 100.0 mg/kg/injection, schedule: Q04DX003 (ip), vehicle: saline with Tween-80.
Setting [7] is: dose: 200.0 mg/kg/injection, schedule: Q04DX003 (ip), vehicle: saline with Tween-80.
[8] abbreviates: dose: 400.0 mg/kg/injection, schedule: Q04DX003 (ip), vehicle: saline with Tween-80.

Values joined by “and” are separate entries in the source; they are usually repeats but may differ in a detail not shown here. Equal values may be shown once. Inconclusive results and toxic doses are left out.

In the case of `COc1cc2c(c(OC)c1OC)-c1ccc(OC)c(=O)cc1[C@@H](NC=O)CC2`, the T/C runs as follows: (dose: 0.05 mg/kg/injection, schedule: Q01DX009 (ip), vehicle: Klucel (hydroxypropylcellulose) (HPC)) 120 % of control; (dose: 0.09 mg/kg/injection, schedule: Q01DX009 (ip), vehicle: Klucel (hydroxypropylcellulose) (HPC)) 160 % of control; (dose: 0.19 mg/kg/injection, schedule: Q01DX009 (ip), vehicle: Klucel (hydroxypropylcellulose) (HPC)) 160 % of control; (dose: 0.37 mg/kg/injection, schedule: Q01DX010 (ip), vehicle: saline) 154 % of control; (dose: 0.38 mg/kg/injection, schedule: Q01DX009 (ip), vehicle: Klucel (hydroxypropylcellulose) (HPC)) 190 % of control; (dose: 0.38 mg/kg/injection, schedule: Q01DX010 (ip), vehicle: saline) 158 % of control. Besides, the T/C was 100 % of control (dose: 0.75 mg/kg/injection, schedule: Q01DX009 (ip), vehicle: Klucel (hydroxypropylcellulose) (HPC)); 170 % of control (dose: 0.75 mg/kg/injection, schedule: Q01DX010 (ip), vehicle: saline); 100 % of control (dose: 6.3 micrograms/kg/injection, schedule: Q01DX010 (ip), vehicle: saline); 100 % of control (dose: 12.0 micrograms/kg/injection, schedule: Q01DX009 (ip), vehicle: Klucel (hydroxypropylcellulose) (HPC)); 88 % of control (dose: 12.5 micrograms/kg/injection, schedule: Q01DX010 (ip), vehicle: saline); 120 % of control (dose: 23.0 micrograms/kg/injection, schedule: Q01DX009 (ip), vehicle: Klucel (hydroxypropylcellulose) (HPC)). The T/C (dose: 25.0 micrograms/kg/injection, schedule: Q01DX010 (ip), vehicle: saline) is 111 % of control and the T/C (dose: 50.0 micrograms/kg/injection, schedule: Q01DX010 (ip), vehicle: saline) was 111 % of control.
For the compound `CCOC(=O)Cc1csc(NNC(=O)c2ccccc2)n1`, the T/C is 108 % of control under setting [1], 99 % of control under setting [2] and 101 % of control under setting [3].
Take `O=C(CN1CCCCC1)c1ccc2c(c1)Cc1cc(C(=O)CN3CCCCC3)ccc1O2`: the T/C was 98 % of control under setting [1] and 90 % of control under setting [2].
On to `COc1ccc(C2C=C(c3ccc4c(c3)OCO4)Oc3c2c(=O)oc2ccccc32)cc1OC` (centres undefined), for which the T/C runs as follows: (dose: 12.5 mg/kg/injection, schedule: Q01DX009 (ip), vehicle: water) 99 % of control; (dose: 25.0 mg/kg/injection, schedule: Q01DX009 (ip), vehicle: water) 94 % of control; (dose: 25.0 mg/kg/injection, schedule: Q04DX003 (ip), vehicle: water) 94 % of control; (dose: 50.0 mg/kg/injection, schedule: Q01DX009 (ip), vehicle: water) 94 % of control; (dose: 50.0 mg/kg/injection, schedule: Q04DX003 (ip), vehicle: water) 101 % of control; (dose: 100.0 mg/kg/injection, schedule: Q01DX009 (ip), vehicle: water) 99 % of control. For the same compound, the T/C by setting is: (dose: 100.0 mg/kg/injection, schedule: Q04DX003 (ip), vehicle: water) 97 % of control; (dose: 200.0 mg/kg/injection, schedule: Q01DX009 (ip), vehicle: water) 94 % of control; (dose: 200.0 mg/kg/injection, schedule: Q04DX003 (ip), vehicle: water) 110 % of control; (dose: 400.0 mg/kg/injection, schedule: Q04DX003 (ip), vehicle: water) 106 % of control.
In the case of `O=C(O)c1ccc(N2C(=O)c3ccccc3C2=O)cc1[N+](=O)[O-]`, the T/C reads like this: under setting [4], 106 % of control; under setting [5], 107 % of control; (dose: 100.0 mg/kg/injection, schedule: Q04DX003 (ip), vehicle: saline) 99 % of control; (dose: 200.0 mg/kg/injection, schedule: Q01DX009 (ip), vehicle: saline) 111 % of control; (dose: 200.0 mg/kg/injection, schedule: Q04DX003 (ip), vehicle: saline) 105 % of control; (dose: 400.0 mg/kg/injection, schedule: Q04DX003 (ip), vehicle: saline) 99 % of control.
In the case of `OC(c1ccc(Cl)cc1)C1CCNCC1` (centres undefined), the T/C under setting [4] was 90 % of control and the T/C under setting [5] is 102 % of control.
Turning to `COC(=O)C(N)CCCCNc1ccc2c(cc1=O)C(NC(C)=O)CCc1cc(OC)c(OC)c(OC)c1-2` (centres undefined), the T/C was 124 % of control (dose: 26.0 mg/kg/injection, schedule: Q01DX009 (ip), vehicle: saline with Tween-80); 118 % of control (dose: 40.0 mg/kg/injection, schedule: Q01DX009 (ip), vehicle: saline with Tween-80); 119 % of control (dose: 60.0 mg/kg/injection, schedule: Q01DX009 (ip), vehicle: saline with Tween-80); 117 % of control (dose: 90.0 mg/kg/injection, schedule: Q01DX009 (ip), vehicle: saline with Tween-80); 170 % of control under setting [3]; 159 % of control (dose: 300.0 mg/kg/injection, schedule: Q01DX009 (ip), vehicle: saline with Tween-80).
As to `Cc1cc([N+](=O)[O-])c2ccccc2c1N(CC(=O)O)S(=O)(=O)c1ccccc1`, the T/C runs as follows: under setting [2], 100 % of control; under setting [6], 100 % of control; under setting [3], 112 % of control; under setting [7], 100 % of control; (dose: 400.0 mg/kg/injection, schedule: Q01DX009 (ip), vehicle: saline with Tween-80) 120 % of control; under setting [8], 121 % of control.
Regarding `COc1cc2oc(=O)c3c(c2cc1OC)CCN(CCN1CCCCC1)C3`, the T/C is 101 % of control (dose: 50.0 mg/kg/injection, schedule: Q04DX002 (ip), vehicle: saline); 100 % of control (dose: 100.0 mg/kg/injection, schedule: Q04DX002 (ip), vehicle: saline); 108 % of control (dose: 200.0 mg/kg/injection, schedule: Q04DX002 (ip), vehicle: saline).
On to `CCOC(=O)Nc1cc(NCC(=O)c2ccc(C(F)(F)F)cc2)c([N+](=O)[O-])c(N)n1`, for which the T/C reads like this: (dose: 50.0 mg/kg/injection, schedule: Q01DX001 (ip), vehicle: saline with Tween-80) 94 % of control; (dose: 100.0 mg/kg/injection, schedule: Q01DX001 (ip), vehicle: saline with Tween-80) 105 % of control; (dose: 200.0 mg/kg/injection, schedule: Q01DX001 (ip), vehicle: saline with Tween-80) 105 % of control.
`Cc1cc(C=O)c(O)c(C=O)c1`: the T/C (dose: 100.0 mg/kg/injection, schedule: Q04DX002 (ip), vehicle: saline with Tween-80) is 112 % of control; the T/C (dose: 200.0 mg/kg/injection, schedule: Q04DX002 (ip), vehicle: saline with Tween-80) was 110 % of control; the T/C (dose: 400.0 mg/kg/injection, schedule: Q04DX002 (ip), vehicle: saline with Tween-80) was 109 % of control.
Regarding `CCCCC(=O)OCC(=O)[C@]1(O)Cc2c(O)c3c(c(O)c2[C@@H](OC2CC(NC(=O)C(F)(F)F)C(O)C(C)O2)C1)C(=O)c1c(OC)cccc1C3=O` (some centres undefined), the T/C is, setting by setting: (dose: 5.0 mg/kg/injection, schedule: Q01DX004 (ip), vehicle: other) 162 % of control; (dose: 10.0 mg/kg/injection, schedule: Q01DX004 (ip), vehicle: other) 155 % of control and 189 % of control; (dose: 13.0 mg/kg/injection, schedule: Q01DX004 (ip), vehicle: saline with Tween-80) 203 % of control; (dose: 20.0 mg/kg/injection, schedule: Q01DX004 (ip), vehicle: other) 288 % of control and 187 % of control; (dose: 21.0 mg/kg/injection, schedule: Q01DX004 (ip), vehicle: saline with Tween-80) 221 % of control; (dose: 21.6 mg/kg/injection, schedule: Q01DX004 (ip), vehicle: saline with Tween-80) 221 % of control. The T/C is 175 % of control (dose: 25.2 mg/kg/injection, schedule: Q04DX003 (ip), vehicle: other); 263 % of control and 351 % of control (dose: 30.0 mg/kg/injection, schedule: Q01DX004 (ip), vehicle: other); 353 % of control (dose: 36.0 mg/kg/injection, schedule: Q01DX004 (ip), vehicle: saline with Tween-80); 98 % of control (dose: 40.0 mg/kg/injection, schedule: Q01DX004 (ip), vehicle: other); 262 % of control (dose: 42.0 mg/kg/injection, schedule: Q04DX003 (ip), vehicle: other); 86 % of control (dose: 50.0 mg/kg/injection, schedule: Q01DX004 (ip), vehicle: other). Further, the T/C (dose: 70.0 mg/kg/injection, schedule: Q04DX003 (ip), vehicle: other) is 506 % of control.
As for `CCSc1nc(C=O)c(Cc2ccc(Br)cc2)c(=O)[nH]1`, the T/C is 109 % of control under setting [6], 122 % of control under setting [7] and 150 % of control under setting [8].
